Experimental findings from patent US10183938B2, “Geminal substituted quinuclidine amide compounds as agonists of α-7 nicotonic acetylcholine receptors” (AXOVANT SCIENCES GMBH, priority 2014, dated 2019) are described below.

Counter-ions that a name gives are not always drawn.

This assay concerns the target human α7 nAChRs transiently expressed in Xenopus laevis oocytes (Homo sapiens (Human), UniProt P36544). Briefly: Oocyte electrophysiology screen (TEVC). The following applies: 0.01 mM test compound, peak current relative to 0.2 mM ACh. It counts as cell-based. Summed up: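 Oocytes expressing human α7 were clamped at −80 mV by TEVC. After a 0.2 mM ACh control pulse, test compound was applied at 0.01 mM for 30 s. Agonist response is peak current as % of the ACh response, in triplicate.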

Chain of human α7 nAChRs transiently expressed in Xenopus laevis oocytes (P36544 23-502 limits assumed): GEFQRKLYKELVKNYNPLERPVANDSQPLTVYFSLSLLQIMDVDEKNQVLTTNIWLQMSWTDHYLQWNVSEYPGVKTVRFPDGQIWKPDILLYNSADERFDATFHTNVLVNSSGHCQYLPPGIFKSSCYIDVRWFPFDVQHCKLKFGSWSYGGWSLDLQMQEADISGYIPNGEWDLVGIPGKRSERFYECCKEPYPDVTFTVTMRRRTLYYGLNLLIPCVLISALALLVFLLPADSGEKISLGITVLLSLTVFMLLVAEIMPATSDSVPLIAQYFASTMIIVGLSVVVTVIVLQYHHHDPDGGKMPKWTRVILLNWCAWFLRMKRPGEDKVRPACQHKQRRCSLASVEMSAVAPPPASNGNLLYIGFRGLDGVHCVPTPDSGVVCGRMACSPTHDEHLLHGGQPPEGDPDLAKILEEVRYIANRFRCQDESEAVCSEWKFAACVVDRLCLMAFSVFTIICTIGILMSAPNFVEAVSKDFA

`Cl.Cn1cnc2ccc(C(=O)N[C@@H]3C4CCN(CC4)C3(C)C)cc21` [(R)-206, (R)-N-(2,2-dimethylquinuclidin-3-yl)-1-methyl-1H-benzo[d]imidazole-6-carboxamide hydrochloride]: the “% ACh @ 10 μM Oocyte” value was found to be 0 % ACh.

Regarding `CC1(C)[C@H](NC(=O)c2cc3ccc(-n4ccnn4)cc3s2)C2CCN1CC2.Cl` [(R)-208, (R)-N-(2,2-dimethylquinuclidin-3-yl)-6-(1H-1,2,3-triazol-1-yl)benzo[b]thiophene-2-carboxamide hydrochloride], the “% ACh @ 10 μM Oocyte” value is reported as 0 % ACh.

As for `CC1(C)[C@H](NC(=O)c2cc3ccc(F)c(C(F)(F)F)c3s2)C2CCN1CC2.Cl` [(R)-211, (R)-N-(2,2-dimethylquinuclidin-3-yl)-6-fluoro-7-(trifluoromethyl)benzo[b]thiophene-2-carboxamide hydrochloride], the “% ACh @ 10 μM Oocyte” value came out at 100 % ACh. As to `CC1(C)[C@H](NC(=O)c2cc3ccc(C4CC4)c(F)c3s2)C2CCN1CC2.Cl` [(R)-213, (R)-6-cyclopropyl-N-(2,2-dimethylquinuclidin-3-yl)-7-fluorobenzo[b]thiophene-2-carboxamide hydrochloride], the “% ACh @ 10 μM Oocyte” value is recorded as 60 % ACh. Turning to `CC1(C)[C@H](NC(=O)c2ccc3c(c2)OCCO3)C2CCN1CC2.Cl` [(R)-215, (R)-N-(2,2-dimethylquinuclidin-3-yl)-2,3-dihydrobenzo[b][1,4]dioxine-6-carboxamide hydrochloride], the “% ACh @ 10 μM Oocyte” value turned out to be 86 % ACh. Regarding `CC1(C)[C@H](NC(=O)c2cc3ccc(Cl)cc3o2)C2CCN1CC2.Cl` [(R)-216, (R)-6-chloro-N-(2,2-dimethylquinuclidin-3-yl)benzofuran-2-carboxamide hydrochloride], the “% ACh @ 10 μM Oocyte” value was 184 % ACh.

On to `Cl.Cn1c(C(=O)N[C@@H]2C3CCN(CC3)C2(C)C)cc2ccccc21` [(R)-221, (R)-N-(2,2-dimethylquinuclidin-3-yl)-1-methyl-1H-indole-2-carboxamide hydrochloride], for which the “% ACh @ 10 μM Oocyte” value turned out to be 188 % ACh. As for `Cl.O=C(N[C@@H]1C2CCN(CC2)C12CC2)c1cc2ccc(OC(F)(F)F)cc2s1` [(R)-248, (R)-N-(1′-azaspiro[cyclopropane-1,2′-bicyclo[2.2.2]octan]-3′-yl)-6-(trifluoromethoxy)benzo[b]thiophene-2-carboxamide hydrochloride], the “% ACh @ 10 μM Oocyte” value turned out to be 1 % ACh. For `Cl.Cn1c(C(=O)N[C@@H]2C3CCN(CC3)C23CC3)cc2ccccc21` [(R)-254, (R)-1-methyl-N-(1′-azaspiro[cyclopropane-1,2′-bicyclo[2.2.2]octan]-3′-yl)-1H-indole-2-carboxamide hydrochloride] the value was 447 % ACh; for `CC1(C)[C@@H](NC(=O)c2cc3cccc(Cl)c3s2)C2CCN1CC2` [(S)-3, (S)-7-chloro-N-(2,2-dimethylquinuclidin-3-yl)benzo[b]thiophene-2-carboxamide hydrochloride], 22 % ACh.

In the case of `CC1(C)[C@@H](NC(=O)c2cc3cccc(F)c3s2)C2CCN1CC2` [(S)-4, (S)—N-(2,2-dimethylquinuclidin-3-yl)-7-fluoro-benzo[b]thiophene-2-carboxamide hydrochloride], the “% ACh @ 10 μM Oocyte” value was determined as 17 % ACh. As to `CC1(C)[C@@H](NC(=O)c2ccc3ccsc3c2)C2CCN1CC2` [(S)-5, (S)—N-(2,2-dimethylquinuclidin-3-yl)benzo[b]thiophene-6-carboxamide hydrochloride], the “% ACh @ 10 μM Oocyte” value came out at 9 % ACh. Take `CC1(C)[C@@H](NC(=O)c2ccc3occc3c2)C2CCN1CC2` [(S)-6, (S)—N-(2,2-dimethylquinuclidin-3-yl)benzofuran-5-carboxamide hydrochloride]: the “% ACh @ 10 μM Oocyte” value is recorded as 2 % ACh.

`CC1(C)[C@@H](NC(=O)c2cc3cccc(C(F)(F)F)c3s2)C2CCN1CC2` [(S)-7, (S)—N-(2,2-dimethylquinuclidin-3-yl)-7-(trifluoromethyl)benzo[b]thiophene-2-carboxamide hydrochloride]: the “% ACh @ 10 μM Oocyte” value is given as 2 % ACh. Consider `CC1(C)[C@@H](NC(=O)c2cc3ccc(F)cc3s2)C2CCN1CC2` [(S)-8, (S)—N-(2,2-dimethylquinuclidin-3-yl)-6-fluorobenzo[b]thiophene-2-carboxamide hydrochloride], for which the “% ACh @ 10 μM Oocyte” value is listed as 1 % ACh. Under `CC1(C)[C@@H](NC(=O)c2cc3ccc(C#N)cc3s2)C2CCN1CC2` [(S)-9, (S)-6-cyano-N-(2,2-dimethylquinuclidin-3-yl)benzo[b]thiophene-2-carboxamide hydrochloride] stands 1 % ACh. `CC1(C)[C@@H](NC(=O)c2cc3ccc(C(F)(F)F)cc3s2)C2CCN1CC2` [(S)-10, (S)—N-(2,2-dimethylquinuclidin-3-yl)-6-(trifluoromethyl)benzo[b]thiophene-2-carboxamide hydrochloride]: the “% ACh @ 10 μM Oocyte” value amounted to 1 % ACh.

Regarding `CC1(C)[C@@H](NC(=O)c2cc3cc(F)ccc3s2)C2CCN1CC2` [(S)-11, (S)—N-(2,2-dimethylquinuclidin-3-yl)-5-fluorobenzo[b]thiophene-2-carboxamide hydrochloride], the “% ACh @ 10 μM Oocyte” value was found to be 9 % ACh. Regarding `CC1(C)[C@@H](NC(=O)c2cc3ccc(Cl)cc3s2)C2CCN1CC2` [(S)-12, (S)-6-chloro-N-(2,2-dimethylquinuclidin-3-yl)benzo[b]thiophene-2-carboxamide hydrochloride], the “% ACh @ 10 μM Oocyte” value was determined as 3 % ACh. Regarding `CC1(C)[C@@H](NC(=O)c2cc3cc(Cl)ccc3s2)C2CCN1CC2` [(S)-13, (S)-5-chloro-N-(2,2-dimethylquinuclidin-3-yl)benzo[b]thiophene-2-carboxamide hydrochloride], the “% ACh @ 10 μM Oocyte” value turned out to be 3 % ACh.

Take `CC1(C)[C@@H](NC(=O)c2cc3cc(Cl)c(Cl)cc3s2)C2CCN1CC2` [(S)-14, (S)-5,6-dichloro-N-(2,2-dimethylquinuclidin-3-yl)benzo[b]thiophene-2-carboxamide hydrochloride]: the “% ACh @ 10 μM Oocyte” value came out at 3 % ACh. For `Cc1ccc2cc(C(=O)N[C@H]3C4CCN(CC4)C3(C)C)sc2c1` [(S)-15, (S)—N-(2,2-dimethylquinuclidin-3-yl)-6-methylbenzo[b]thiophene-2-carboxamide hydrochloride], the “% ACh @ 10 μM Oocyte” value amounted to 3 % ACh.

Turning to `Cc1ccc2sc(C(=O)N[C@H]3C4CCN(CC4)C3(C)C)cc2c1` [(S)-16, (S)—N-(2,2-dimethylquinuclidin-3-yl)-5-methylbenzo[b]thiophene-2-carboxamide hydrochloride], the “% ACh @ 10 μM Oocyte” value is given as 2 % ACh. Take `CC1(C)[C@@H](NC(=O)c2cc3cc(C(F)(F)F)ccc3s2)C2CCN1CC2` [(S)-17, (S)—N-(2,2-dimethylquinuclidin-3-yl)-5-(trifluoromethyl)benzo[b]thiophene-2-carboxamide hydrochloride]: the “% ACh @ 10 μM Oocyte” value was 1 % ACh. As to `CC1(C)[C@@H](NC(=O)c2cc3ccc(C4CC4)cc3s2)C2CCN1CC2` [(S)-18, (S)-6-cyclopropyl-N-(2,2-dimethylquinuclidin-3-yl)benzo[b]thiophene-2-carboxamide hydrochloride], the “% ACh @ 10 μM Oocyte” value is recorded as 1 % ACh. In the case of `CC1(C)[C@@H](NC(=O)c2cc3cc(C4CC4)ccc3s2)C2CCN1CC2` [(S)-19, (S)-5-cyclopropyl-N-(2,2-dimethylquinuclidin-3-yl)benzo[b]thiophene-2-carboxamide hydrochloride], the “% ACh @ 10 μM Oocyte” value turned out to be 3 % ACh. Regarding `COc1ccc2cc(C(=O)N[C@H]3C4CCN(CC4)C3(C)C)sc2c1` [(S)-20, (S)—N-(2,2-dimethylquinuclidin-3-yl)-6-methoxybenzo[b]thiophene-2-carboxamide hydrochloride], the “% ACh @ 10 μM Oocyte” value turned out to be 5 % ACh. As for `COc1ccc2sc(C(=O)N[C@H]3C4CCN(CC4)C3(C)C)cc2c1` [(S)-21, (S)—N-(2,2-dimethylquinuclidin-3-yl)-5-methoxybenzo[b]thiophene-2-carboxamide hydrochloride], the “% ACh @ 10 μM Oocyte” value turned out to be 1 % ACh. For `CC1(C)[C@@H](NC(=O)c2cc3ccoc3cn2)C2CCN1CC2` [(S)-22, (S)—N-(2,2-dimethylquinuclidin-3-yl)furo[2,3-c]pyridine-5-carboxamide hydrochloride], the “% ACh @ 10 μM Oocyte” value was 25 % ACh. `CC1(C)[C@@H](NC(=O)c2cc3c(cn2)OCCO3)C2CCN1CC2` [(S)-23, (S)—N-(2,2-dimethylquinuclidin-3-yl)-2,3-dihydro-[1,4]dioxino[2,3-c]pyridine-7-carboxamide hydrochloride]: the “% ACh @ 10 μM Oocyte” value is 0 % ACh.

`CC1(C)[C@@H](NC(=O)c2cnn3ncccc23)C2CCN1CC2` [(S)-27, (S)—N-(2,2-dimethylquinuclidin-3-yl)pyrazolo[1,5-b]pyridazine-3-carboxamide hydrochloride]: the “% ACh @ 10 μM Oocyte” value came out at 0 % ACh. Under `CC1(C)[C@@H](NC(=O)c2cc3cccnc3s2)C2CCN1CC2` [(S)-28, (S)—N-(2,2-dimethylquinuclidin-3-yl)thieno[2,3-b]pyridine-2-carboxamide hydrochloride] stands 1 % ACh; under `CC1(C)[C@@H](NC(=O)c2nc3ccccc3s2)C2CCN1CC2` [(S)-29, (S)—N-(2,2-dimethylquinuclidin-3-yl)benzo[d]thiazole-2-carboxamide hydrochloride], 2 % ACh. For `O=C(N[C@H]1C2CCN(CC2)C12CC2)c1cc2ccoc2cn1` [(S)-75, (S)—N-(1′-azaspiro[cyclopropane-1,2′-bicyclo[2.2.2]octan]-3′-yl)furo[2,3-c]pyridine-5-carboxamide hydrochloride], the “% ACh @ 10 μM Oocyte” value is listed as 14 % ACh. Take `O=C(N[C@H]1C2CCN(CC2)C12CC2)c1cc2c(cn1)OCCO2` [(S)-76, (S)—N-(1′-azaspiro[cyclopropane-1,2′-bicyclo[2.2.2]octan]-3′-yl)-2,3-dihydro-[1,4]dioxino[2,3-c]pyridine-7-carboxamide hydrochloride]: the “% ACh @ 10 μM Oocyte” value turned out to be 1 % ACh.
